Legend:
NAD kinase [1] = molecular target: T1, NAD kinase (Homo sapiens, UniProt O95544); experiment: Inhibition of human NADK expressed in Escherichia coli BL21(DE3) assessed as reduction in NADP production using NAD as substrate by glucose-6-phosphate dehydrogenase coupled enzyme based spectrophotometric method
T1 sequence (O95544 whole entry): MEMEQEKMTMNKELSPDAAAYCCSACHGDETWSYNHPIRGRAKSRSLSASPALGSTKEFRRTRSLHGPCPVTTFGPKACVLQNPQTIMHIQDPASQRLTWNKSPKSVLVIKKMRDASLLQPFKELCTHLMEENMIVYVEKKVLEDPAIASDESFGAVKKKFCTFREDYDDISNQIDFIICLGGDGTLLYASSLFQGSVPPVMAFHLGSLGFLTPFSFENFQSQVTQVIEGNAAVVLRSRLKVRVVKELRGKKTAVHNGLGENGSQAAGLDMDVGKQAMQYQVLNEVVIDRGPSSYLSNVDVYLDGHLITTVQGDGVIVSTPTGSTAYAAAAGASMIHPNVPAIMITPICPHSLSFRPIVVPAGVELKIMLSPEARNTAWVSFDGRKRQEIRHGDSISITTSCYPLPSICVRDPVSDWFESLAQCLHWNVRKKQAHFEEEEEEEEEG

[2] = Cytotoxicity against human MRC5 cells up to 1 x 10^-4M; type: toxicity, cell-based
[3] = Competitive inhibition of Listeria monocytogenes C-terminal His6-tagged NADK1 expressed in Escherichia coli BL21(DE3) assessed as reduction in NADP production using varying levels of NAD as substrate by glucose-6-phosphate dehydrogenase coupled enzyme based spectrophotometric method
NAD kinase [4] = molecular target: T2, NAD kinase (Staphylococcus aureus (strain COL), UniProt Q5HH78); experiment: Inhibition of Staphylococcus aureus COL NADK expressed in Escherichia coli BL21(DE3) assessed as reduction in NADP production using NAD as substrate by glucose-6-phosphate dehydrogenase coupled enzyme based spectrophotometric method; design: species or system Staphylococcus aureus subsp. aureus COL
T2 sequence (Q5HH78 whole entry): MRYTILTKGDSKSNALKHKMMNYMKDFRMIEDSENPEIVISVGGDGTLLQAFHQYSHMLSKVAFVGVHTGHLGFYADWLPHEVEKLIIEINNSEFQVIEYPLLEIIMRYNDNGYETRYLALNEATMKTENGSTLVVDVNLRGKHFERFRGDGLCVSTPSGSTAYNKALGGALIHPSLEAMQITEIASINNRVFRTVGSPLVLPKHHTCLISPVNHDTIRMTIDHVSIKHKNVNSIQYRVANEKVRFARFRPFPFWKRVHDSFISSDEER

[5] = molecular target: T3, NAD kinase (Homo sapiens) (UniProt O95544); experiment: Inhibition of human NADK expressed in Escherichia coli BL21(DE3) assessed as reduction in NADP production at 250 uM using NAD as substrate by glucose-6-phosphate dehydrogenase coupled enzyme based spectrophotometric method relative to control
T3 sequence (whole entry): T1 sequence (O95544 whole entry)

Listeria monocytogenes = experiment: Inhibition of Listeria monocytogenes C-terminal His6-tagged NADK1 expressed in Escherichia coli BL21(DE3) assessed as reduction in NADP production at 300 uM using NAD as substrate by glucose-6-phosphate dehydrogenase coupled enzyme based spectrophotometric method relative to control relative to control
[6] = molecular target: T3, NAD kinase (Homo sapiens); experiment: Inhibition of human NADK expressed in Escherichia coli BL21(DE3) assessed as reduction in NADP production at 500 uM using NAD as substrate by glucose-6-phosphate dehydrogenase coupled enzyme based spectrophotometric method relative to control
[7] = molecular target: T3, NAD kinase (Homo sapiens); experiment: Inhibition of human NADK expressed in Escherichia coli BL21(DE3) assessed as reduction in NADP production at 400 uM using NAD as substrate by glucose-6-phosphate dehydrogenase coupled enzyme based spectrophotometric method relative to control

| SMILES | Ki (NAD kinase [1]) [µM] | Activity [2] | Ki [3] [µM] | IC50 (NAD kinase [4]) [µM] | inhibition [5] [%] | inhibition (Listeria monocytogenes) [%] | inhibition [6] [%] | inhibition [7] [%] |
| --- | --- | --- | --- | --- | --- | --- | --- | --- |
| Cn1cc(CCNC(=O)CSc2nc3c(N)ncnc3n2[C@@H]2O[C@H](CN=[N+]=[N-])[C@@H](O)[C@H]2O)c2ccccc21 | 350 | Non-Toxic | 0.4 | – | – | – | – | – |
| Nc1ncnc2c1nc(SCCC(=O)NCCc1cccc(Br)c1)n2[C@@H]1O[C@H](CO)[C@@H](O)[C@H]1O | – | Non-Toxic | 50 | > 400 | – | – | – | – |
| [N-]=[N+]=NC[C@H]1O[C@@H](n2c(SCC(=O)NCCc3ccc(Cl)c(Cl)c3)nc3c(N)ncnc32)[C@H](O)[C@@H]1O | 140 | Non-Toxic | 0.1 | – | – | – | – | – |
| CCNC(=O)NC[C@H]1O[C@@H](n2c(SCC(=O)NCCc3ccc(Cl)c(Cl)c3)nc3c(N)ncnc32)[C@H](O)[C@@H]1O | – | Non-Toxic | 3 | – | 10 | – | – | – |
| [N-]=[N+]=NC[C@H]1O[C@@H](n2c(SCC(=O)NCCc3ccc4ccccc4c3)nc3c(N)ncnc32)[C@H](O)[C@@H]1O | 140 | Non-Toxic | 5 | – | – | – | – | – |
| CN(C)S(=O)(=O)NC[C@H]1O[C@@H](n2c(SCC(=O)NCCc3ccc(Cl)c(Cl)c3)nc3c(N)ncnc32)[C@H](O)[C@@H]1O | 160 | Non-Toxic | 3.5 | – | – | – | – | – |
| [N-]=[N+]=NC[C@H]1O[C@@H](n2c(SCC(=O)NCc3ccnc(Cl)c3)nc3c(N)ncnc32)[C@H](O)[C@@H]1O | 220 | Non-Toxic | – | > 400 | – | 20 | – | – |
| [N-]=[N+]=NC[C@H]1O[C@@H](n2c(SCC(=O)NCCc3cccc(Cl)c3)nc3c(N)ncnc32)[C@H](O)[C@@H]1O | – | Non-Toxic | 0.75 | – | – | – | – | – |
| C[C@H]1O[C@@H](n2c(SCC(=O)NCCc3ccc(Cl)c(Cl)c3)nc3c(N)ncnc32)[C@H](O)[C@@H]1O | 180 | Non-Toxic | 1.5 | – | – | – | – | – |
| Nc1ncnc2c1nc(SCC(=O)NCCc1cccc(Cl)c1)n2[C@@H]1O[C@H](CO)[C@@H](O)[C@H]1O | 200 | Non-Toxic | 30 | – | – | – | – | – |
| Nc1ncnc2c1nc(SCC(=O)NCCc1ccc(C(F)(F)F)cc1)n2[C@@H]1O[C@H](CO)[C@@H](O)[C@H]1O | – | Non-Toxic | 10 | – | – | – | – | – |
| [N-]=[N+]=NC[C@H]1O[C@@H](n2c(SCC(=O)NCc3cccc(Br)c3)nc3c(N)ncnc32)[C@H](O)[C@@H]1O | – | Non-Toxic | 25 | > 400 | – | – | – | – |
| Nc1ncnc2c1nc(SCC(=O)NCCc1c[nH]c3ccccc13)n2[C@@H]1O[C@H](CO)[C@@H](O)[C@H]1O | – | Non-Toxic | 2 | – | – | – | 20 | – |
| [N-]=[N+]=NC[C@H]1O[C@@H](n2c(SCC(=O)NCCc3cccc(C(F)(F)F)c3)nc3c(N)ncnc32)[C@H](O)[C@@H]1O | 300 | Non-Toxic | 6.5 | – | – | – | – | – |
| [N-]=[N+]=NC[C@H]1O[C@@H](n2c(SCC(=O)NCCc3ccc(Br)cc3)nc3c(N)ncnc32)[C@H](O)[C@@H]1O | – | Non-Toxic | 0.5 | – | – | – | – | – |
| Nc1ncnc2c1nc(SCC(=O)NCCc1ccc(Cl)c(Cl)c1)n2[C@@H]1O[C@H](CO)[C@@H](O)[C@H]1O | 425 | Non-Toxic | 22 | – | – | – | – | – |
| [N-]=[N+]=NC[C@H]1O[C@@H](n2c(SCC(=O)NCCCc3ccccc3)nc3c(N)ncnc32)[C@H](O)[C@@H]1O | 150 | Non-Toxic | 55 | > 400 | – | – | – | – |

| SMILES | Ki (NAD kinase [1]) [µM] | Activity [2] | Ki [3] [µM] | IC50 (NAD kinase [4]) [µM] | inhibition [5] [%] | inhibition (Listeria monocytogenes) [%] | inhibition [6] [%] | inhibition [7] [%] |
| --- | --- | --- | --- | --- | --- | --- | --- | --- |
| Nc1ncnc2c1nc(SCC(=O)NCCc1ccccc1)n2[C@@H]1O[C@H](CO)[C@@H](O)[C@H]1O | – | Non-Toxic | 140 | > 400 | – | – | – | 10 |
| NC[C@H]1O[C@@H](n2c(SCC(=O)NCCc3ccc(Cl)c(Cl)c3)nc3c(N)ncnc32)[C@H](O)[C@@H]1O | 130 | Non-Toxic | 2 | – | – | – | – | – |
| NC[C@H]1O[C@@H](n2c(SCC(=O)NCCc3ccc(Br)cc3)nc3c(N)ncnc32)[C@H](O)[C@@H]1O | 130 | Non-Toxic | 55 | – | – | – | – | – |
| Nc1ncnc2c1nc(SCC(=O)NCCc1cccc(Br)c1)n2[C@@H]1O[C@H](CO)[C@@H](O)[C@H]1O | 335 | Non-Toxic | 2 | > 400 | – | – | – | – |
| [N-]=[N+]=NC[C@H]1O[C@@H](n2c(SCC(=O)NCCc3c[nH]c4ccc(Cl)cc34)nc3c(N)ncnc32)[C@H](O)[C@@H]1O | – | Non-Toxic | 0.3 | – | – | – | – | – |
| [N-]=[N+]=NC[C@H]1O[C@@H](n2c(SCC(=O)NCCc3ccc(C(F)(F)F)cc3)nc3c(N)ncnc32)[C@H](O)[C@@H]1O | 230 | Non-Toxic | 7.5 | – | – | – | – | – |
| [N-]=[N+]=NC[C@H]1O[C@@H](n2c(SCC(=O)NCCc3c[nH]c4ccccc34)nc3c(N)ncnc32)[C@H](O)[C@@H]1O | 140 | Non-Toxic | 0.5 | – | – | – | – | – |
| Nc1ncnc2c1nc(SCC(=O)NCCc1ccc(Br)cc1)n2[C@@H]1O[C@H](CO)[C@@H](O)[C@H]1O | 250 | Non-Toxic | 30 | – | – | – | – | – |
| C#CCNC(=O)CSc1nc2c(N)ncnc2n1[C@@H]1O[C@H](CN=[N+]=[N-])[C@@H](O)[C@H]1O | 140 | Non-Toxic | 30 | > 400 | – | – | – | – |
| COc1ccc2[nH]cc(CCNC(=O)CSc3nc4c(N)ncnc4n3[C@@H]3O[C@H](CO)[C@@H](O)[C@H]3O)c2c1 | – | Non-Toxic | 40 | – | – | – | – | – |
| [N-]=[N+]=NC[C@H]1O[C@@H](n2c(SCC(=O)NCCc3nc4ccccc4[nH]3)nc3c(N)ncnc32)[C@H](O)[C@@H]1O | 525 | Non-Toxic | 23 | – | – | – | – | – |
| COc1ccc2[nH]cc(CCNC(=O)CSc3nc4c(N)ncnc4n3[C@@H]3O[C@H](CN=[N+]=[N-])[C@@H](O)[C@H]3O)c2c1 | 160 | Non-Toxic | 5 | – | – | – | – | – |
| C#Cc1cccc(CCNC(=O)CSc2nc3c(N)ncnc3n2[C@@H]2O[C@H](CN=[N+]=[N-])[C@@H](O)[C@H]2O)c1 | – | Non-Toxic | 6 | – | 20 | – | – | – |
| Nc1ncnc2c1nc(SCC(=O)NCCc1ccc(Cl)cc1)n2[C@@H]1O[C@H](CO)[C@@H](O)[C@H]1O | – | Non-Toxic | 40 | – | – | – | 20 | – |
| Nc1ncnc2c1nc(SCC(=O)NCCc1c[nH]c3ccc(Cl)cc13)n2[C@@H]1O[C@H](CO)[C@@H](O)[C@H]1O | 775 | Non-Toxic | 0.25 | – | – | – | – | – |
| [N-]=[N+]=NC[C@H]1O[C@@H](n2c(SCC(=O)NCCc3ccc(Cl)cc3)nc3c(N)ncnc32)[C@H](O)[C@@H]1O | 210 | Non-Toxic | 0.5 | – | – | – | – | – |

— ChEMBL document CHEMBL3875180, “8-Thioalkyl-adenosine derivatives inhibit Listeria monocytogenes NAD kinase through a novel binding mode” (Eur J Med Chem, 2016)
